The record followed here is the METLIN SMRT retention time set (Domingo-Almenara et al. 2019).

The data set is described as follows: gradient 5% acetonitrile 3 min, to 50% in 2 min, to 85% in 15 min, held 3 min, 100 µL/min. The following applies: column: Zorbax Extend-C18 2.1 x 50 mm; eluents: water / acetonitrile, 0.1% formic acid. In outline: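 Pure standards were run in mixtures of ~100 molecules by HPLC coupled to a quadrupole time-of-flight mass spectrometer. The column was a Zorbax Extend-C18 (2.1 × 50 mm, 1.8 μm) at 100 μL/min, with water and acetonitrile each containing 0.1% formic acid, in positive and negative ionization mode. Dead and dwell volumes were 40 μL and 900 μL. Retention time was taken from computationally picked adduct peaks, each manually inspected, with data collected over 3 months.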
Compound `O=c1c2c(CO)c(-c3ccccc3)nn2ccn1Cc1cc(F)ccc1F` came in with an RP-LC retention time of 924 s. `Cc1sc(NC(=O)Cc2csc(-c3ccccc3)n2)nc1-c1cccc(Cl)c1` registered an RP-LC retention time of 1270 s. The figure for `Cc1cccc(NC(=O)c2cn3c(n2)CCCC3)c1` is 609 s; for `Cc1nc(Nc2ccc(Br)cn2)sc1C(=O)N1CCN(C)CC1` it is 606 s. The figure for `Cc1nc(-c2ccncc2)nc2c1CC(=O)N2C1CCCCC1` is 716 s; for `CC(C)C(NC(=O)c1ccco1)C(=O)N1CCC(c2noc(-c3ccccc3)n2)CC1` (stereo not given) it is 920 s; for `CC(=O)NCc1cn[nH]c1-c1ccc(Cl)cc1` it is 625 s. For `COc1ccc(NC(=O)C2CCCN(c3nc4c(s3)c(C)nn4-c3ccccc3)C2)c(OC)c1` (stereo not given), the RP-LC retention time was 1160 s.

For the compound `C[C@@H]1CN(CCCn2c3ccccc3c3ccccc32)C[C@H](C)N1`, the RP-LC retention time was 712 s. The figure for `CCc1cc(C(=O)Nc2cc(OC)cc(OC)c2)nc2cc(-c3ccco3)nn12` is 795 s; for `Cc1nc2cccnc2n1C1CCN(C(=O)Nc2cccc(Br)c2)CC1` it is 673 s; for `COc1cccc(Sc2ccc(N3CCCC(C(=O)NCc4ccc5c(c4)OCO5)C3)nn2)c1` (stereo not given) it is 826 s. As for `O=C(NCc1csc(-c2ccccc2)n1)C1CCN(S(=O)(=O)c2ccc(F)c(Cl)c2)CC1`, the figure is 987 s; as for `CCCNC(=O)c1cnn(-c2cc(-c3nc(C)no3)ccn2)c1C`, 772 s; as for `Cc1cc2c(=O)n(CC(=O)Nc3ccc(Cl)cc3)c3cccnc3n2n1`, 745 s. As for `CCOCc1nc(C2CCCN2S(=O)(=O)c2ccc3c(c2)CCC3)no1` (stereo not given), the figure is 1020 s; as for `O=C(CCNc1c(-c2cccc(F)c2)nc2cnccn12)NCc1ccccc1Cl`, 780 s.

`Cc1ccccc1OCC(=O)N1CCCC1c1nc(-c2cccc(Cl)c2)no1` (stereo not given): the RP-LC retention time came to 1150 s. As for `CC(C)c1ccc(OCC(=O)Nc2nnc(C3CC(=O)N(c4ccc(Cl)cc4)C3)o2)cc1` (stereo not given), the figure is 943 s; as for `COCC1CN(C(=O)c2sccc2C)CC12CCNCC2` (stereo not given), 575 s; as for `CCc1ccccc1NC(=O)CSc1nc2nc(C)cc(C)n2n1`, 732 s. With `CC1CCN(C(=O)CN2C(=O)CCCc3cc(S(=O)(=O)N4CCCCC4)ccc32)CC1`, the RP-LC retention time is 901 s. The figure for `CCOc1ccc(NC(=O)N(Cc2ccc3c(c2)OCO3)C2CCN(CC)CC2)cc1` is 661 s; for `COc1ccc(NC(=O)c2cc(C(C)C)n(C3CCS(=O)(=O)C3)n2)cc1Cl` (stereo not given) it is 931 s. `CCc1cccc(NS(=O)(=O)c2cc3n(c2)CCN(CC)C3=O)c1`: the RP-LC retention time was determined as 762 s. The figure for `CCC(=O)Nc1ccc(C2(C(=O)N3CCN(c4cccc(C)c4)CC3)CCC2)cc1` is 908 s; for `CCOc1cc2ncc(C#N)c(Nc3ccc(OCc4ccccn4)c(Cl)c3)c2cc1NC(=O)/C=C/CN(C)C` it is 620 s; for `CCOc1ccccc1NC(=O)N1CCc2cn(CCOC)c3cccc(c23)C1` it is 827 s. With `Cc1ccc(-n2nc(C(=O)Nc3ccc4c(c3)OCCO4)c3ncn(C)c(=O)c32)cc1`, the RP-LC retention time came to 887 s. The compound `CCCCS(=O)(=O)N1C[C@@H](COC)[C@H](C(=O)NC)C1` displayed an RP-LC retention time of 626 s. The compound `COc1cc(-c2nnc(-c3cccc(S(=O)(=O)N(C)C)c3)o2)cc(OC)c1OC` came in with an RP-LC retention time of 873 s.

In the case of `Cc1cc(C)c2c(=O)n(Cc3nc(-c4ccccc4Cl)oc3C)c(=O)n(Cc3ccco3)c2n1`, the RP-LC retention time is 1390 s. As for `Cc1ccc(C(=O)N2CCc3[nH]cnc3C23CCCCC3)s1`, the figure is 606 s; as for `CN1c2cc(C(=O)NCc3ccncc3)ccc2C(=O)N2CCCCC21` (stereo not given), 586 s.

Turning to `Cc1csc(NC(=O)Cn2nc3c(cc2=O)CCCCC3)n1`, the RP-LC retention time turned out to be 735 s. For `O=C(c1cccnc1)N1CCCCC1c1nncn1-c1ccccc1` (stereo not given), the RP-LC retention time was determined as 596 s. As for `Cc1ccc(-n2c(=O)c3c(cc(C)n3C)n(CC(=O)Nc3ccc(C)cc3Cl)c2=O)cc1`, the figure is 960 s; as for `COc1ccc(-c2cn3ccn(-c4ccc(Cl)cc4)c(=O)c3n2)cc1OC`, 887 s; as for `COc1ccc(/C=C2\COc3ccc(C)cc3C2=O)cc1O`, 1050 s. The figure for `O=C(CCc1c(-c2ccc(F)cc2)nc2ccccn12)Nc1ccccc1F` is 653 s; for `CC1CCCN(S(=O)(=O)c2cc(C(=O)N3CCCc4ccccc43)n(C)c2)C1` (stereo not given) it is 1060 s.

On to `Cc1cc(N(C)C)n2nc(-c3ccc(Cl)cc3)c(C)c2n1`, for which the RP-LC retention time came to 744 s. As for `COc1ccc(OC)c(-c2ccc(=O)n(CC(=O)Nc3ccc(-n4cnnn4)cc3)n2)c1`, the figure is 689 s; as for `O=C([C@@H]1C[C@H](F)CN1C(=O)c1cccc(F)c1)N1CCCCC1`, 693 s; as for `COCCCNC(=O)C1c2ccccc2CCN1C(C)=O` (stereo not given), 641 s. As for `O=C(Nc1nc(CCC(=O)N2CCn3c2nc2ccccc23)cs1)c1ccc(F)cc1`, the figure is 721 s; as for `Cn1cc(CCN2CCN(S(=O)(=O)c3cccc(C#N)c3)CC2)c2cccnc21`, 608 s; as for `COc1ccc(CNC(=O)C2=C3CCCN3c3ccccc3S2(=O)=O)cc1`, 795 s.

Compound `Cc1nc(C)c(C(=O)Nc2cc(Cl)ccc2C)s1` returned an RP-LC retention time of 837 s. The figure for `CCN(C(=O)c1ccco1)c1nc(-c2ccc(Br)cc2)cs1` is 1320 s; for `CCOc1ccc(Nc2c(-c3ccc(N(C)C)cc3)nc3cnccn23)cc1` it is 813 s.

The compound `O=C(NCC1CN(c2ccc3c(c2)OCO3)C(=O)O1)c1cccs1` (stereo not given) had an RP-LC retention time of 678 s. As for `CC(C)n1cnc2c(-c3ccccc3)cn(CC(=O)NCc3ccco3)c2c1=O`, the figure is 592 s; as for `CCc1ccc(-c2csc(Cc3nc(-c4ccc5c(c4)OCO5)no3)n2)cc1`, 1300 s; as for `COc1ccc(-c2cc(N3CCN(C(=O)Nc4ccc5c(c4)OCCO5)CC3)ncn2)cc1`, 652 s. Turning to `O=C(Nc1ccc(N2CCOCC2)cc1)C1CCCN(c2ncc(-c3ccc(F)cc3)cn2)C1` (stereo not given), the RP-LC retention time amounted to 951 s. As for `COc1ccc(-c2ncc3c(n2)CCN(S(=O)(=O)c2ccc(C)c(Cl)c2)C3)cc1`, the figure is 1180 s; as for `CN(C)c1ccc(NC(=O)c2cn(-c3ccc(F)cc3)nn2)cc1`, 675 s; as for `O=C(NCCc1ccccc1)NCCC1CCN(S(=O)(=O)c2ccc(F)cc2)CC1`, 887 s. Turning to `CCCN1CCn2cc(C(=O)NCc3ccc(C(C)C)cc3)nc2C1`, the RP-LC retention time was found to be 665 s.

`CCOC(=O)c1ccc(N2C=C(C#N)S(=O)(=O)c3ccccc32)cc1` returned an RP-LC retention time of 917 s. The figure for `COc1cccc(C(=O)Nc2c(-c3ccccc3)nc3ccccn23)c1OC` is 666 s; for `CC1CS(=O)(=O)N(c2ccc(S(=O)(=O)Nc3ccccc3C(F)(F)F)cc2)C1=O` (stereo not given) it is 819 s. The figure for `Cc1ccn2cc(C(=O)N3CCN(c4ccc(F)cc4)CC3)nc2c1` is 650 s; for `CCc1cc(=O)n(CC(=O)N2CCN(c3ccc(OC)cc3)CC2)c(N2CCOCC2)n1` it is 668 s.

Consider `Cc1cccc(C(=O)NCCc2cn(CC(C)C)c3ncccc23)c1`, for which the RP-LC retention time is 827 s. As for `Cc1ccc(-c2cc3n(n2)CCCN(C(=O)c2n[nH]c4ccccc24)C3)cc1`, the figure is 850 s; as for `Cn1ncc2c3ccccc3n(CC(=O)NCc3cccs3)c2c1=O`, 764 s. As for `O=C(Oc1ccc2oc(=O)sc2c1)c1cccc(Cl)c1`, the figure is 1090 s; as for `CCN(c1ccccc1)S(=O)(=O)c1ccc2[nH]c(=O)[nH]c2c1`, 655 s; as for `COCCN1C(=O)CCc2cc(NS(=O)(=O)c3cccc4nsnc34)ccc21`, 716 s.

In turn, `CN1c2cc(F)ccc2C(=O)NC12CCN(C(=O)c1ccc(F)c(Cl)c1)CC2` came in with an RP-LC retention time of 823 s. As for `Fc1ccccc1C(c1nnc(-c2ccccc2)o1)N1CCN(c2ccccn2)CC1` (stereo not given), the figure is 704 s; as for `CCc1cc(C(=O)Nc2ccc(C(=O)OC)cc2)nc2cc(-c3ccco3)nn12`, 1200 s; as for `COc1cccc(S(=O)(=O)N2CCCC(c3nn[nH]n3)C2)c1` (stereo not given), 717 s. The figure for `O=C(CC1CCOC2(CCN(Cc3ccco3)CC2)C1)NC1CC1` (stereo not given) is 573 s. In turn, `CCC(C)NC(=O)C1c2ccccc2CC(=O)N1C` (stereo not given) had an RP-LC retention time of 658 s. The compound `CN(C)S(=O)(=O)c1ccc(C(=O)N2Cc3nn(C(C)(C)C)c(-n4cccc4)c3C2)cc1` displayed an RP-LC retention time of 888 s. `COc1ccc(-c2noc(C3CCCN3C(=O)Nc3cccc(C)c3)n2)cc1` (stereo not given) returned an RP-LC retention time of 830 s. The figure for `O=S(=O)(Cc1ccccc1F)N1CCCCC1c1nc(-c2ccccc2)n[nH]1` (stereo not given) is 948 s.
